Source: patent publication US20090220612A1, “HOLLOW-FIBRE-BASED BIOCOMPATIBLE DRUG DELIVERY DEVICE WITH ONE OR MORE LAYERS” (priority 2005, published 2009)

Assay: Polymer degradation and in vitro 5-FU release from hollow fibres in PBS pH 7.4
Assay type: physicochemical
Settings: FIG. 30
Procedure: 0.07 g of each hollow fibre was weighed and immersed in 20 ml of de-ionised water in a screw-topped bottle. These were then placed on an orbital shaker maintained at a temperature of 37° C. The pH of the degradation medium was measured every two days to monitor the rate of generation of acidic byproducts. A Jenway (Model 3051) pH meter was used for this purpose.
In vitro drug release studies were carried out in phosphate buffer saline (PBS) at both room temperature (˜25° C.) and 37° C. PBS solution was applied to keep the degrading system at a constant pH 7.4 value. Every type of polymer fibre was cut into 10 pieces, with 5 cm each. At room temperature, each fibre piece was first sealed at one end with bio-adhesive, and was injected with liquid 5-FU with a syringe pump from the other open end before it was sealed. […] The amount of drug release was measured every 24 hours within the 3 months. The quantitative measurement of the amount of drug released was measured with a UV Spectrometer. A calibration curve was performed as the concentration versus absorbance for the drug in buffer (wavelength of absorption, □=266 nm (5-FU) and λ=298 nm (cisplatin and carboplatin) or atomic absorption spectroscopy) which was plotted in a logarithmic scale gave a straight line. […] The absorbance of the drug was noted. […]

O=c1[nH]cc(F)c(=O)[nH]1 [5-FU, fluorouracil]
effect on degradation and drug release rate of polymer hollow fibres: accelerates the degradation and drug release rate
